# According to US20030188756A1, “Treatment of inflammatory bowel disease with vitamin d compounds” (priority 2002, published 2003):
# Tests used:
# Assay type in all cases: in vivo
# IL-10 KO mice [1] = test: Food restriction experiment, IL-10 KO mice on cholecalciferol diet (+D restricted); settings: mean ± SEM
# Description: (§1) MICE. Age and sex matched C57BL/6 IL-10 KO, and wildtype (WT) mice were produced in the Pennsylvania State University breeding colony; the breeding pairs were obtained from Jackson Laboratory (Bar Harbor, Me.). The animal facilities at the Pennsylvania State University are specific pathogen free and therefore breeding IL-10 KO mice was successful. All of the procedures described were reviewed and approved by the Pennsylvania State University Institutional Animal Care and Use Committee on Jan. 25, 1999, IACUC# number: 98118-A0.
# (§2) DIETS. From a single pool of breeding females fed commercial mouse diet (#5105 Ralston Purina Co.), females in the second week of gestation were selected and randomly distributed into two groups. Starting pregnant dams on vitamin D deficient diet ensured that by 5 weeks of age the weanlings were vitamin D deficient (Cantorna et al. 1996). All mice were fed synthetic diets made in the laboratory (Yang et al. 1993; modification of Smith et al. 1987). The mice were vitamin D deficient, vitamin D sufficient or 1,25-dihydroxycholecalciferol supplemented. Mice were housed under yellow light to prevent the synthesis of vitamin D in skin. All of the mice were vitamin D deficient until weaning.
# The 3 week old vitamin D deficient mice were randomly assigned to various treatment groups as described below. […] Experimental diets were prepared fresh and replaced every 2-3 days during the experiment. To ensure that 1,25-dihydroxycholecalciferol (1,25(OH)2D3) treated mice ate all of the 1,25(OH)2D3 provided, food cups containing 8 g of diet were replaced every other day (completely eaten) for the duration of each experiment (Cantorna et al. 1996, Cantorna et al. 1998a). […] Symptoms of hypercalcemia monitored daily included overall health and weight loss. […]
# (§3) IBD SEVERITY. Mortality associated with the development of diarrhea was recorded in IL-10 KO and WT mice. […] Four or more paraffin sections (4 microns) from each mouse were scored using the exact procedure described by Kuhns et. al (1993). The sections were scored blindly on a scale of 0 to 5 for inflammation. […]
# IL-10 KO mice [2] = test: Mortality and growth of IL-10 KO mice fed cholecalciferol (vitamin D sufficient) from weaning
# Description: as §1
# DIETS. From a single pool of breeding females fed commercial mouse diet (#5105 Ralston Purina Co.), females in the second week of gestation were selected and randomly distributed into two groups. Starting pregnant dams on vitamin D deficient diet ensured that by 5 weeks of age the weanlings were vitamin D deficient (Cantorna et al. 1996). […]
# (§4) The 3 week old vitamin D deficient mice were randomly assigned to various treatment groups as described below. […] Symptoms of hypercalcemia monitored daily included overall health and weight loss. […]
# as §3
# IL-10 KO mice [3] = test: 1,25(OH)2D3 supplementation (0.005 μg/d, 4 weeks) of vitamin D deficient IL-10 KO mice, IBD symptoms
# Description: as §1, §2
# (§5) The 3 week old vitamin D deficient mice were randomly assigned to various treatment groups as described below. […] Experimental diets were prepared fresh and replaced every 2-3 days during the experiment. To ensure that 1,25-dihydroxycholecalciferol (1,25(OH)2D3) treated mice ate all of the 1,25(OH)2D3 provided, food cups containing 8 g of diet were replaced every other day (completely eaten) for the duration of each experiment (Cantorna et al. 1996, Cantorna et al. 1998a). In order to monitor vitamin D toxicity, 1,25(OH)2D3 supplemented mice were observed daily for signs of hypercalcemia. Symptoms of hypercalcemia monitored daily included overall health and weight loss.
# In the 2nd series of experiments 3 week old vitamin D deficient mice were split into 2 groups. One group of mice was maintained on the vitamin D deficient diet and the other group was supplemented with 0.005 μg/d 1,25(OH)2D3. The vitamin D deficient and 1,25(OH)2D3 supplemented mice were sacrificed 4 weeks later at […].
# SERUM MEASUREMENTS. Mice were bled at 5 weeks of age and at the end of the experiments to measure hemoglobin, calcium, and red blood cell numbers. Serum was collected every 2 weeks and serum calcium measured (normal for mice is 2.00-2.75 mmol/L). Vitamin D deficiency was also monitored by serum calcium analysis (serum calcium less then 1.75 mmol/L). Calcium (587-A) and hemoglobin (525-A) colorometric kits were from Sigma Chemical Co. (St. Louis, Mo.). Red blood cells were counted using a hemocytometer.
# IBD SEVERITY. Mortality associated with the development of diarrhea was recorded in IL-10 KO and WT mice. In addition the small intestines (SI) were removed and weighed. The jejunum of the […] KO mice is visibly inflamed and has been used by others to monitor symptoms of IBD in mice (Kuhns et al. 1993). The jejunum of the SI was saved in 100 g/L formalin in phosphate buffered saline solution and sent to the Penn State Diagnostic Laboratory for sectioning and staining with hematoxyalin and eosin. Four or more paraffin sections (4 microns) from each mouse were scored using the exact procedure described by Kuhns et. al (1993). The sections were scored blindly on a scale of 0 to 5 for inflammation. […]
# WT mice = test: 1,25(OH)2D3 supplementation (0.005 μg/d, 4 weeks) of vitamin D deficient WT mice; settings: 0.005 μg/day 1,25(OH)2D3 for 4 weeks, mean ± SEM
# Description: as §1
# DIETS. […]
# as §4
# SERUM MEASUREMENTS. […] Serum was collected every 2 weeks and serum calcium measured (normal for mice is 2.00-2.75 mmol/L). Vitamin D deficiency was also monitored by serum calcium analysis (serum calcium less then 1.75 mmol/L). […] Red blood cells were counted using a hemocytometer.
# as §3
# IL-10 KO mice [4] = test: Short term (2 weeks, 0.2 μg/d) 1,25(OH)2D3 treatment of IL-10 KO mice started at first IBD symptoms
# Description: as §1, §2, §5
# In the 3rd experimental design 1,25(OH)2D3 treatment was started at the first signs of IBD symptoms (diarrhea, 7 weeks of age). Seven week old vitamin D deficient mice were split into 2 groups. One group was maintained vitamin D deficient and the other group was supplemented with 0.2 μg/d 1,25(OH)2D3. The mice were treated for 2 weeks and the 9 week old mice were sacrificed.
# IBD SEVERITY. Mortality associated with the development of diarrhea was recorded in IL-10 KO and WT mice. In addition the small intestines (SI) were removed and weighed. The jejunum of the […] KO mice is visibly inflamed and has been used by others to monitor symptoms of IBD in mice (Kuhns et al. 1993). […] Four or more paraffin sections (4 microns) from each mouse were scored using the exact procedure described by Kuhns et. al (1993). The sections were scored blindly on a scale of 0 to 5 for inflammation. […]
# [5] = 5.0 μg/d cholecalciferol for 4 weeks
# [6] = 1,25(OH)2D3 supplemented IL-10 KO and WT mice, data not shown
# [7] = 0.2 μg/d 1,25(OH)2D3 for 2 weeks from 7 weeks of age, mean ± SEM
# [8] = treatment for as little as 2 weeks
SMILES,Weight (IL-10 KO mice [1]; 5.0 μg/d cholecalciferol for 4 weeks from 5 weeks of age) [g],Small Intestine g (IL-10 KO mice [1]; [5]) [g],Small Intestine g/100 g body (IL-10 KO mice [1]; [5]) [g/100 g body],Diarrhea and mortality (IL-10 KO mice [2]; 5.0 μg cholecalciferol/d from weaning (FIG. 1)),"Growth (body weight curve) (IL-10 KO mice [2]; 5.0 μg cholecalciferol/d from weaning, compared to vitamin D deficient IL-10 KO mice (FIG. 2))",Erythrocyte numbers (IL-10 KO mice [3]; [6]),Hemoglobin levels (IL-10 KO mice [3]; [6]),"Weight (IL-10 KO mice [3]; IL-10 KO mice, 0.005 μg/day 1,25(OH)2D3 for 4 weeks, 9 weeks of age, mean ± SEM) [g]","Serum Calcium (IL-10 KO mice [3]; IL-10 KO mice, 0.005 μg/day 1,25(OH)2D3 for 4 weeks, mean ± SEM) [mmol/L]","Histology Score (IL-10 KO mice [3]; IL-10 KO mice, small intestine (jejunum) inflammation, scale 0 to 5, 0.005 μg/day for 4 weeks, mean ± SEM)",Serum Calcium (WT mice) [mmol/L],Small Intestine g (IL-10 KO mice [4]; [7]) [g],Small Intestine g/100 g body (IL-10 KO mice [4]; [7]) [g/100 g body],IBD symptoms (IL-10 KO mice [4]; [8]),Inflammation in the small intestine (IL-10 KO mice [4]; [8])
C=C1CC[C@H](O)C/C1=C/C=C1\CCC[C@]2(C)[C@@H]([C@H](C)CCCC(C)C)CC[C@@H]12 [cholecalciferol],16.1 ± 1.1,1.00 ± 0.02,6.2 ± 0.3,did not develop diarrhea or die,grew rapidly,–,–,–,–,–,–,–,–,–,–
"C=C1/C(=C\C=C2/CCC[C@]3(C)[C@@H]([C@H](C)CCCC(C)(C)O)CC[C@@H]23)C[C@@H](O)C[C@@H]1O [1,25(OH)2D3, 1,25-dihydroxycholecalciferol]",–,–,–,–,–,normal and not different,normal and not different,20.9 ± 0.8,3.00 ± 0.30,1.7 ± 0.4,2.72 ± 0.25,1.08 ± 0.05,5.4 ± 0.3,ameliorated IBD symptoms,reduced the inflammation
